# Reference: ChEMBL document CHEMBL4842380, “Enhanced Properties of a Benzimidazole Benzylpyrazole Lysine Demethylase Inhibitor: Mechanism-of-Action, Binding Site Analysis, and Activity in Cellular Models of Prostate Cancer” (J Med Chem, 2021)
# Activity calls are given as the source filed them. No cut-off for these calls is given here.
# T1: Lysine-specific demethylase 4E (Homo sapiens, UniProt B2RXH2)
# T1 sequence (B2RXH2 whole entry): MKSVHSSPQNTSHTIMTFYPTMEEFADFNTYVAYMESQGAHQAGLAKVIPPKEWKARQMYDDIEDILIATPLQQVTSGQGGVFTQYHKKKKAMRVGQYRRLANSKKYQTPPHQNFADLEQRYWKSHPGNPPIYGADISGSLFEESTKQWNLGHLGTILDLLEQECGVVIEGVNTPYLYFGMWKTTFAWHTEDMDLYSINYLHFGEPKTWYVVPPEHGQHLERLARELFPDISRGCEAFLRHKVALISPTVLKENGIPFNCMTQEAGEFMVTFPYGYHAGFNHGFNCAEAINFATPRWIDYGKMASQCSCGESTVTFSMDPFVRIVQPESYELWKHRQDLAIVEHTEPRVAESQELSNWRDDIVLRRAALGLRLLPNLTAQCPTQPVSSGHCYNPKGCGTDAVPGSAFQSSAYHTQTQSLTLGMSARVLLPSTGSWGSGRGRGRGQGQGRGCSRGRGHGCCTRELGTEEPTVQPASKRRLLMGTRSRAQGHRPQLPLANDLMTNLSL
# T2: Lysine-specific demethylase 4E (Homo sapiens) (UniProt B2RXH2)
# T2 sequence (whole entry): T1 sequence (B2RXH2 whole entry)
# B1: Lysine-specific demethylase 4E (Homo sapiens), B2RXH2 (protein)
# chain: T1 sequence (B2RXH2 whole entry)
# Key:
# [1] = target: T1, Lysine-specific demethylase 4E; experiment: Inhibition of N-terminal His6-tagged KDM4E (1 to 337 residues) (unknown origin) expressed in Escherichia coli BL21 (DE3)-R3 preincubated for 10 mins followed by substrate addition by fluorescence based FDH-coupled assay
# LNCaP [2] = experiment: Inhibition of KDM4 in human LNCaP cells assessed as decrease in luciferase activity at 25 uM incubated for 48 hrs by luciferase based reporter gene assay; assay type: cell-based
# DU-145 [3] = experiment: Cytotoxicity against human DU-145 cells assessed as remaining cell viability after 48 hrs by alamar blue assay; assay type: functional
# LNCaP [4] = experiment: Cytotoxicity against human LnCaP cells assessed as growth inhibition after 48 hrs by alamar blue assay; assay type: functional
# LNCaP [5] = experiment: Inhibition of KDM4 in human LNCaP cells assessed as increase in H3K9me3 abundance at 25 uM incubated for 48 hrs by Western blot analysis; assay type: cell-based
# LNCaP [6] = experiment: Inhibition of KDM4 in human LNCaP cells assessed as decrease in PSA gene expression at 25 uM incubated for 48 hrs by qPCR analysis; assay type: cell-based
# LNCaP [7] = experiment: Inhibition of KDM4 in human LNCaP cells assessed as decrease in PSA gene expression at 25 uM incubated for 48 hrs in presence of DHT by qPCR analysis; assay type: cell-based
# DU-145 [8] = experiment: Inhibition of KDM4 in human DU-145 cells assessed as increase in H3K9me3 level at 25 uM incubated for 48 hrs by Nu-ELISA; assay type: cell-based
# [9] = Cytotoxicity against human prostate epithelial cells assessed as remaining cell viability after 48 hrs by alamar blue assay; assay type: functional
# PC-3 [10] = experiment: Cytotoxicity against human PC-3 cells assessed as remaining cell viability after 48 hrs by alamar blue assay; assay type: functional
# DU-145 [11] = experiment: Cytotoxicity against human DU-145 cells assessed as growth inhibition after 48 hrs by alamar blue assay; assay type: functional
# PC-3 [12] = experiment: Cytotoxicity against human PC-3 cells assessed as growth inhibition after 48 hrs by alamar blue assay; assay type: functional
# LNCaP [13] = experiment: Inhibition of KDM4 in human LNCaP cells assessed as increase in H3K9me3 level at 25 uM incubated for 48 hrs by Nu-ELISA; assay type: cell-based
# [14] = Cytotoxicity against human LnCaP cells assessed as remaining cell viability after 48 hrs by alamar blue assay; assay type: functional, Prostate cell
# [15] = target: T2, Lysine-specific demethylase 4E (Homo sapiens); experiment: Inhibition of N-terminal His6-tagged KDM4E (1 to 337 residues) (unknown origin) expressed in Escherichia coli BL21 (DE3)-R3 at highest concentration preincubated for 10 mins followed by substrate addition by fluorescence based FDH-coupled assay
# LNCaP [16] = experiment: Inhibition of KDM4 in human LNCaP cells assessed as decrease in PSA gene expression at 100 uM incubated for 48 hrs by qPCR analysis; assay type: cell-based
# LNCaP [17] = experiment: Inhibition of KDM4 in human LNCaP cells assessed as decrease in luciferase activity at 50 uM incubated for 48 hrs by luciferase based reporter gene assay; assay type: cell-based
# [18] = compound: Cc1nn(-c2nc3ccccc3[nH]2)c(O)c1-c1ccccc1; experiment: Inhibition of N-terminal His6-tagged KDM4E (1 to 337 residues) (unknown origin) expressed in Escherichia coli BL21 (DE3)-R3 assessed as Km at 5 uM in presence of H3K9me3 by Michaelis-Menten analysis (reference value: 11 uM); details: Homo sapiens
# [19] = compound: Cc1nn(-c2nc3ccccc3[nH]2)c(O)c1-c1ccccc1; experiment: Inhibition of N-terminal His6-tagged KDM4E (1 to 337 residues) (unknown origin) expressed in Escherichia coli BL21 (DE3)-R3 assessed as Km at 10 uM in presence of alpha-KG by Michaelis-Menten analysis (reference value: 12 uM); details: Homo sapiens
# [20] = compound: Cc1nn(-c2nc3ccccc3[nH]2)c(O)c1-c1ccccc1; experiment: Inhibition of N-terminal His6-tagged KDM4E (1 to 337 residues) (unknown origin) expressed in Escherichia coli BL21 (DE3)-R3 assessed as Vmax at 1 uM in presence of H3K9me3 by Michaelis-Menten analysis (reference value: 21 /s); details: Homo sapiens
# [21] = compound: O=C(O)c1ccnc(C(=O)O)c1; experiment: Inhibition of N-terminal His6-tagged KDM4E (1 to 337 residues) (unknown origin) expressed in Escherichia coli BL21 (DE3)-R3 assessed as Vmax at 1 uM in presence of alpha-KG by Michaelis-Menten analysis (reference value: 42 /s); details: Homo sapiens
# [22] = compound: Cc1nn(-c2nc3ccccc3[nH]2)c(O)c1-c1ccccc1; experiment: Inhibition of N-terminal His6-tagged KDM4E (1 to 337 residues) (unknown origin) expressed in Escherichia coli BL21 (DE3)-R3 assessed as Km at 1 uM in presence of alpha-KG by Michaelis-Menten analysis (reference value: 12 uM); details: Homo sapiens
# [23] = compound: Cc1nn(-c2nc3ccccc3[nH]2)c(O)c1-c1ccccc1; experiment: Inhibition of N-terminal His6-tagged KDM4E (1 to 337 residues) (unknown origin) expressed in Escherichia coli BL21 (DE3)-R3 assessed as Vmax at 10 uM in presence of alpha-KG by Michaelis-Menten analysis (reference value: 35 /s); details: Homo sapiens
# [24] = compound: Cc1nn(-c2nc3ccccc3[nH]2)c(O)c1-c1ccccc1; experiment: Inhibition of N-terminal His6-tagged KDM4E (1 to 337 residues) (unknown origin) expressed in Escherichia coli BL21 (DE3)-R3 assessed as Km at 5 uM in presence of alpha-KG by Michaelis-Menten analysis (reference value: 12 uM); details: Homo sapiens
# [25] = compound: Cc1nn(-c2nc3ccccc3[nH]2)c(O)c1-c1ccccc1; experiment: Inhibition of N-terminal His6-tagged KDM4E (1 to 337 residues) (unknown origin) expressed in Escherichia coli BL21 (DE3)-R3 assessed as Vmax at 5 uM in presence of H3K9me3 by Michaelis-Menten analysis (reference value: 21 /s); details: Homo sapiens
# [26] = compound: Cc1nn(-c2nc3ccccc3[nH]2)c(O)c1-c1ccccc1; experiment: Inhibition of N-terminal His6-tagged KDM4E (1 to 337 residues) (unknown origin) expressed in Escherichia coli BL21 (DE3)-R3 assessed as Km at 1 uM in presence of H3K9me3 by Michaelis-Menten analysis (reference value: 11 uM); details: Homo sapiens
# [27] = compound: Cc1nn(-c2nc3ccccc3[nH]2)c(O)c1-c1ccccc1; experiment: Inhibition of N-terminal His6-tagged KDM4E (1 to 337 residues) (unknown origin) expressed in Escherichia coli BL21 (DE3)-R3 assessed as Km at 10 uM in presence of H3K9me3 by Michaelis-Menten analysis (reference value: 11 uM); details: Homo sapiens
# [28] = compound: Cc1nn(-c2nc3ccccc3[nH]2)c(O)c1-c1ccccc1; experiment: Inhibition of N-terminal His6-tagged KDM4E (1 to 337 residues) (unknown origin) expressed in Escherichia coli BL21 (DE3)-R3 assessed as Vmax at 5 uM in presence of alpha-KG by Michaelis-Menten analysis (reference value: 35 /s); details: Homo sapiens
# [29] = compound: O=C(O)c1ccnc(C(=O)O)c1; experiment: Inhibition of N-terminal His6-tagged KDM4E (1 to 337 residues) (unknown origin) expressed in Escherichia coli BL21 (DE3)-R3 assessed as Km at 1 uM in presence of alpha-KG by Michaelis-Menten analysis (reference value: 22 uM); details: Homo sapiens
# [30] = compound: Cc1nn(-c2nc3ccccc3[nH]2)c(O)c1-c1ccccc1; experiment: Inhibition of N-terminal His6-tagged KDM4E (1 to 337 residues) (unknown origin) expressed in Escherichia coli BL21 (DE3)-R3 assessed as Vmax at 1 uM in presence of alpha-KG by Michaelis-Menten analysis (reference value: 35 /s); details: Homo sapiens
# [31] = compound: Cc1nn(-c2nc3ccccc3[nH]2)c(O)c1-c1ccccc1; experiment: Inhibition of N-terminal His6-tagged KDM4E (1 to 337 residues) (unknown origin) expressed in Escherichia coli BL21 (DE3)-R3 assessed as Vmax at 10 uM in presence of H3K9me3 by Michaelis-Menten analysis (reference value: 21 /s); details: Homo sapiens
molecule,measurement,setting,value
CCCCc1nn(-c2nc3ccccc3[nH]2)c(O)c1-c1ccccc1,IC50,[1],6 µM
Cc1nn(-c2nc3ccccc3[nH]2)c(O)c1-c1ccccc1,inhibition,LNCaP [2],Active
same,Activity,DU-145 [3],0%
same,GI50,LNCaP [4],8 µM
same,inhibition,LNCaP [5],Active
same,inhibition,LNCaP [6],Active
same,inhibition,LNCaP [7],Active
same,inhibition,DU-145 [8],Active
same,Activity,[9],2%
same,Activity,PC-3 [10],27%
same,GI50,DU-145 [11],8 µM
same,GI50,PC-3 [12],> 50 µM
same,inhibition,LNCaP [13],Active
same,Activity,[14],1%
Cc1nn(-c2nc3ccccc3[nH]2)c(O)c1CCC(=O)O,IC50,[1],274 µM
CNCCCc1c(C)nn(-c2nc3ccccc3[nH]2)c1O,IC50,[1],9 µM
COC(=O)CCc1nn(-c2nc3ccccc3[nH]2)c(O)c1C,IC50,[1],106 µM
O=C(O)Cc1cc(O)n(-c2nc3ccccc3[nH]2)n1,IC50,[1],347 µM
C=CCc1c(C)nn(-c2nc3ccccc3[nH]2)c1O,IC50,[1],24 µM
COC(=O)CCc1c(C)nn(-c2nc3ccccc3[nH]2)c1O,IC50,[1],72 µM
Cc1c(CCC(=O)O)nn(-c2nc3ccccc3[nH]2)c1O,IC50,[1],437 µM
Cc1cc(C)n(-c2nc3ccccc3[nH]2)n1,inhibition,[15],inactive
CN(C)CCCNC(=O)c1ccc(-c2cc(O)c3ncccc3c2)cc1,inhibition,LNCaP [16],inactive
same,GI50,LNCaP [4],53 µM
same,inhibition,LNCaP [17],Active
same,inhibition,DU-145 [8],Active
same,inhibition,LNCaP [13],Active
same,Activity,[14],1%
Brc1cnn(-c2nc3ccccc3[nH]2)c1,inhibition,[15],inactive
Cc1nn(-c2nc3ccccc3n2C)c(O)c1-c1ccccc1,IC50,[1],34 µM
Cc1nn(-c2ccccn2)c(O)c1Cc1ccccc1,IC50,[1],57 µM
Cc1cc(N)n(-c2nc3ccccc3[nH]2)n1,IC50,[1],199 µM
Cc1nn(-c2nc3ccccc3s2)c(O)c1-c1ccccc1,IC50,[1],35 µM
C=CCc1c(C)nn(-c2ccccn2)c1O,IC50,[1],191 µM
Cc1cc(O)n(-c2nc3ccccc3[nH]2)n1,IC50,[1],76 µM
Cc1nn(-c2nc3ccccc3[nH]2)c(O)c1CCC(=O)N(C)C,IC50,[1],16 µM
Cc1nn(-c2ccc(Cl)nn2)c(O)c1-c1ccccc1,IC50,[1],68 µM
CCCc1c(C)nn(-c2nc3ccccc3[nH]2)c1O,IC50,[1],24 µM
CCc1nn(-c2nc3ccccc3[nH]2)c(O)c1-c1ccccc1,IC50,[1],5 µM
Cc1nn(-c2nc3ccccc3[nH]2)c(N)c1-c1ccccc1,IC50,[1],160 µM
Cc1nn(-c2nc3ccccc3[nH]2)c(O)c1Cc1ccccc1,IC50,[1],27 µM
C#CCc1c(C)nn(-c2nc3ccccc3[nH]2)c1O,IC50,[1],5 µM
Cc1ccc(-c2c(C)nn(-c3nc4ccccc4[nH]3)c2O)cc1,IC50,[1],27 µM
CNC(=O)CCc1c(C)nn(-c2nc3ccccc3[nH]2)c1O,IC50,[1],41 µM
Cc1nn(-c2nc3ccc(C(=O)O)cc3[nH]2)c(O)c1-c1ccccc1,IC50,[1],19 µM
Cc1nn(-c2nc3ccccc3[nH]2)c(O)c1CCCN(C)C,IC50,[1],70 µM
B1,Km,[18],14 µM
same,Km,[19],2 µM
same,Vmax,[20],21 s⁻¹
same,Vmax,[21],37 s⁻¹
same,Km,[22],13 µM
same,Vmax,[23],12 s⁻¹
same,Km,[24],8 µM
same,Vmax,[25],14 s⁻¹
same,Km,[26],14 µM
same,Km,[27],19 µM
same,Vmax,[28],24 s⁻¹
same,Km,[29],69 µM
same,Vmax,[30],31 s⁻¹
same,Vmax,[31],5 s⁻¹
